Experimental data taken from patent publication US20070117743A1, “New antitumoral compounds” (priority 2003, published 2007).
Where a SMILES comes first, the peptide text is derived from it. Bridges are numbered along the chain shown (N, C = ends). [ ]: non-standard residue; d: D form. The star is where a group is joined. d(aIle) = CC[C@H](C)[C@@H](N)C(=O)O; d(aThr) = C[C@@H](O)[C@@H](N)C(=O)O; Hexanoyl(5-Me) = CC(C)CCCC(=O)*; Orn = NCCC[C@H](N)C(=O)O; Dhb = C/C=C(\N)C(=O)O

Key:
Format in all cases: cell-based, human
IGROV-1 = assay: SRB colorimetric assay of cell growth and viability, IGROV-1; details: 48 hours exposure
Excerpt: (§1) The finality of this assay is to interrupt the growth of a “in vitro” tumor cell culture by means a continued exhibition of the cells to the sample to be testing.
(§2) This form of the assay employs 96 well cell culture microplates of 9 mm diameter (Faircloth, 1988; Mosmann, 1983). Most of the cell lines are obtained from American Type Culture Collection (ATCC) derived from different human cancer types.
(§3) Cells are maintained in RPMI 1640 10% FBS, supplemented with 0.1 g/l penicillin and 0.1 g/l streptomycin sulfate and then incubated at 37° C., 5% CO2 and 98% humidity. For the experiments, cells were harvested from subconfluent cultures using trypsin and resuspended in fresh medium before plating.
(§4) Cells are seeded in 96 well microtiter plates, at 5×10^3 cells per well in aliquots of 195 μL medium, and they are allowed to attach to the plate surface by growing in drug free medium for 18 hours. Afterward, samples are added in aliquots of 5 μL in a ranging from 10 to 10^−8 μg/mL, dissolved in DMSO:EtOH:PBS (0.5:0.5:99). After 48 hours exposure, the antitumor effect are measured by the SRB methodology: cells are fixed by adding 50 μL of cold 50% (wt/vol) trichloroacetic acid (TCA) and incubating for 60 minutes at 4° C. Plates are washed with deionized water and dried. One hundred μL of SRB solution (0.4% wt/vol in 1% acetic acid) is added to each microtiter well and incubated for 10 minutes at room temperature. Unbound SRB is removed by washing with 1% acetic acid. Plates are air dried and bound stain is solubilized with Tris buffer. Optical densities are read on a automated spectrophotometric plate reader at a single wavelength of 490 nm.
(§5) The values for mean+/− SD of data from triplicate wells are calculated. Some parameters for cellular responses can be calculated: GI=growth inhibition, TGI=total growth inhibition (cytostatic effect) and LC=cell killing (cytotoxic effect).

HeLa-APL = assay: SRB colorimetric assay of cell growth and viability, HeLa-APL; details: 48 hours exposure; for CC50: read-out: LC50 HELA-APL
Excerpt: as §1, §2, §3, §4, §5

IGROV-ET = assay: SRB colorimetric assay of cell growth and viability, IGROV-ET; details: 48 hours exposure; for CC50: read-out: LC50 IGROV-ET
Excerpt: as §1, §2, §3, §4, §5

SK-MEL-28 = assay: SRB colorimetric assay of cell growth and viability, SK-MEL-28; details: 48 hours exposure; for CC50: read-out: LC50 MEL-28
Excerpt: as §1, §2, §3, §4, §5

K-562 = assay: SRB colorimetric assay of cell growth and viability, K-562; details: 48 hours exposure; for CC50: read-out: LC50 K-562
Excerpt: as §1, §2, §3, §4, §5

HeLa = assay: SRB colorimetric assay of cell growth and viability, HeLa; details: 48 hours exposure; for CC50: read-out: LC50 HELA
Excerpt: as §1, §2, §3, §4, §5

PANC-1 = assay: SRB colorimetric assay of cell growth and viability, PANC-1; details: 48 hours exposure; for CC50: read-out: LC50 PANC-1
Excerpt: as §1, §2, §3, §4, §5

LoVo-Dox = assay: SRB colorimetric assay of cell growth and viability, LoVo-Dox; details: 48 hours exposure; for CC50: read-out: LC50 LOVO-DOX
Excerpt: as §1
A colorimetric type of assay, using sulforhodamine B (SRB) reaction has been adapted for a quantitative measurement of cell growth and viability [following the technique described by Philip Skehan, et al. (1990), New colorimetric cytotoxicity assay for anticancer drug screening, J. Natl. Cancer Inst., 82:1107-1112].
as §2, §3, §4, §5

DU-145 = assay: SRB colorimetric assay of cell growth and viability, DU-145; details: 48 hours exposure
Excerpt: as §1, §2, §3, §4, §5

A-549 = assay: SRB colorimetric assay of cell growth and viability, A-549; details: 48 hours exposure; for GI50: read-out: GI50 A-549; for CC50: read-out: LC50 A-549
Excerpt: as §1, §2, §3, §4, §5

LoVo = assay: SRB colorimetric assay of cell growth and viability, LoVo; details: 48 hours exposure; for CC50: read-out: LC50 LOVO
Excerpt: as §1, §2, §3, §4, §5

HT-29 = assay: SRB colorimetric assay of cell growth and viability, HT-29; details: 48 hours exposure; for GI50: read-out: GI50 HT-29; for CC50: read-out: LC50 HT-29
Excerpt: as §1, §2, §3, §4, §5

Compound	GI50 (IGROV-1) [µM]	LC50 (concentration causing 50% net cell killing) (IGROV-1) [µM]	TGI IGROV (IGROV-1) [Molar]	GI50 (HeLa-APL) [µM]	TGI HELA-APL (HeLa-APL) [Molar]	CC50 (HeLa-APL) [µM]	GI50 (IGROV-ET) [µM]	TGI IGROV-ET (IGROV-ET) [Molar]	CC50 (IGROV-ET) [µM]	GI50 (SK-MEL-28) [µM]	TGI MEL-28 (SK-MEL-28) [Molar]	CC50 (SK-MEL-28) [µM]	GI50 (K-562) [µM]	TGI K-562 (K-562) [Molar]	CC50 (K-562) [µM]	GI50 (HeLa) [µM]	TGI HELA (HeLa) [Molar]	CC50 (HeLa) [µM]	GI50 (PANC-1) [µM]	TGI PANC-1 (PANC-1) [Molar]	further results
C/C=C1\NC(=O)[C@H](Cc2ccccc2)NC(=O)[C@@H](C(C)C)NC(=O)[C@@H]([C@@H](C)CC)NC(=O)[C@H](NC(=O)[C@H](NC(=O)[C@H](CCCN)NC(=O)[C@H]2CCCN2C(=O)[C@H](NC(=O)[C@@H](NC(=O)[C@@H](NC(=O)[C@H]2CCCN2C(=O)CCCC(C)C)[C@@H](C)O)C(C)C)C(C)C)[C@@H](C)CC)[C@@H](C)OC(=O)[C@H](C(C)C)NC1=O [Compound 37, [D-Pro^13]-KF]	0.165	2.55	8.27E−07	0.888	2.01E−06	4.55	1.21	2.24E−06	4.15	0.0766	2.76E−07	1.3	0.684	1.48E−06	3.2	0.0129	2.83E−08	0.062	0.0154	3.12E−08	CC50 (PANC-1): 0.0628 µM; GI50 (LoVo-Dox): 1.78 µM; TGI LOVO-DOX (LoVo-Dox): 4.30E−06 Molar; CC50 (LoVo-Dox): 6.78 µM; GI50 (DU-145): 0.228 µM; LC50 (concentration causing 50% net cell kill) (DU-145): 1.96 µM; TGI DU-145 (DU-145): 5.81E−07 Molar; TGI A-549 (A-549): 3.90E−08 Molar; GI50 (A-549): 0.0174 µM; CC50 (A-549): 0.813 µM; GI50 (LoVo): 0.114 µM; TGI LOVO (LoVo): 1.02E−06 Molar; CC50 (LoVo): 2.97 µM; TGI HT-29 (HT-29): 6.78E−06 Molar; GI50 (HT-29): 0.391 µM; CC50 (HT-29): 6.78 µM
C/C=C1\NC(=O)[C@H](Cc2ccccc2)NC(=O)[C@@H](C(C)C)NC(=O)[C@@H]([C@@H](C)CC)NC(=O)[C@H](NC(=O)[C@H](NC(=O)[C@H](CCCN)NC(=O)[C@H]2CCCN2C(=O)[C@H](NC(=O)[C@@H](NC(=O)[C@H](CCC(=O)O)NC(=O)CCCC(C)C)C(C)C)C(C)C)[C@@H](C)CC)[C@@H](C)OC(=O)[C@H](C(C)C)NC1=O [Compound 56, [Glu^12, noD-Val^13]-KF] ({Hexanoyl(5-Me)}-EV[dV][dP][Orn][d(aIle)][d(aThr)][d(aIle)][dV]F[Dhb]V; ester 7-C)	2.78	≥ 7.11	7.11E−06	≥ 7.11	7.11E−06	≥ 7.11	1.39	7.11E−06	≥ 7.11	≥ 7.11	7.11E−06	≥ 7.11	≥ 7.11	7.11E−06	≥ 7.11	0.37	7.11E−06	≥ 7.11	0.118	7.11E−06	CC50 (PANC-1): ≥ 7.11 µM; GI50 (LoVo-Dox): ≥ 7.11 µM; TGI LOVO-DOX (LoVo-Dox): 7.11E−06 Molar; CC50 (LoVo-Dox): ≥ 7.11 µM; GI50 (DU-145): 1.95 µM; LC50 (concentration causing 50% net cell kill) (DU-145): ≥ 7.11 µM; TGI DU-145 (DU-145): 7.11E−06 Molar; TGI A-549 (A-549): 7.11E−06 Molar; GI50 (A-549): 0.168 µM; CC50 (A-549): ≥ 7.11 µM; GI50 (LoVo): 2.22 µM; TGI LOVO (LoVo): 7.11E−06 Molar; CC50 (LoVo): ≥ 7.11 µM; TGI HT-29 (HT-29): 7.11E−06 Molar; GI50 (HT-29): ≥ 7.11 µM; CC50 (HT-29): ≥ 7.11 µM
C/C=C1\NC(=O)[C@H](Cc2ccccc2)NC(=O)[C@@H](C(C)C)NC(=O)[C@@H]([C@@H](C)CC)NC(=O)[C@H](NC(=O)[C@H](NC(=O)[C@H](CCCN)NC(=O)[C@H]2CCCN2C(=O)[C@H](NC(=O)[C@@H](NC(=O)[C@@H]2CCCN2C(=O)CCCC(C)C)C(C)C)C(C)C)[C@@H](C)CC)[C@@H](C)OC(=O)[C@H](C(C)C)NC1=O [Compound 55, [Pro^12, noD-Val^13]-KF] ({Hexanoyl(5-Me)}-PV[dV][dP][Orn][d(aIle)][d(aThr)][d(aIle)][dV]F[Dhb]V; ester 7-C)	7.27	7.27	7.27E−06	7.27	7.27E−06	7.27	7.27	7.27E−06	7.27	7.27	7.27E−06	7.27	7.27	7.27E−06	7.27	7.27	7.27E−06	7.27	7.27	7.27E−06	CC50 (PANC-1): 7.27 µM; GI50 (LoVo-Dox): 7.27 µM; TGI LOVO-DOX (LoVo-Dox): 7.27E−06 Molar; CC50 (LoVo-Dox): 7.27 µM; GI50 (DU-145): 7.27 µM; LC50 (concentration causing 50% net cell kill) (DU-145): 7.27 µM; TGI DU-145 (DU-145): 7.27E−06 Molar; TGI A-549 (A-549): 7.27E−06 Molar; GI50 (A-549): 7.27 µM; CC50 (A-549): 7.27 µM; GI50 (LoVo): 7.27 µM; TGI LOVO (LoVo): 7.27E−06 Molar; CC50 (LoVo): 7.27 µM; TGI HT-29 (HT-29): 7.27E−06 Molar; GI50 (HT-29): 7.27 µM; CC50 (HT-29): 7.27 µM
C/C=C1\NC(=O)[C@H](Cc2ccccc2)NC(=O)[C@@H](C(C)C)NC(=O)[C@@H]([C@@H](C)CC)NC(=O)[C@H](NC(=O)[C@H](NC(=O)[C@H](CCCN)NC(=O)[C@H]2CCCN2C(=O)[C@H](NC(=O)[C@@H](NC(=O)[C@@H](NC(=O)[C@@H](Cc2ccccc2)NC(=O)CCCC(C)C)[C@@H](C)O)C(C)C)C(C)C)[C@@H](C)CC)[C@@H](C)OC(=O)[C@H](C(C)C)NC1=O [Compound 36, [D-Phe^13]-KF]	0.144	2.5	9.90E−07	0.0819	6.55E−06	6.55	0.852	1.74E−06	3.55	0.154	7.21E−07	2.2	0.42	1.25E−06	2.9	0.00786	9.50E−08	0.701	0.00662	2.73E−08	CC50 (PANC-1): 0.976 µM; GI50 (LoVo-Dox): 0.3 µM; TGI LOVO-DOX (LoVo-Dox): 9.63E−07 Molar; CC50 (LoVo-Dox): 2.15 µM; GI50 (DU-145): 0.266 µM; LC50 (concentration causing 50% net cell kill) (DU-145): 2.49 µM; TGI DU-145 (DU-145): 6.75E−07 Molar; TGI A-549 (A-549): 5.14E−08 Molar; GI50 (A-549): 0.00481 µM; CC50 (A-549): 0.99 µM; GI50 (LoVo): 0.136 µM; TGI LOVO (LoVo): 9.63E−07 Molar; CC50 (LoVo): 2.44 µM; TGI HT-29 (HT-29): 1.21E−06 Molar; GI50 (HT-29): 0.398 µM; CC50 (HT-29): 2.84 µM
